What was measured:
Test in all cases: relative viability (nuclei count vs DMSO), 5 days (fraction); higher = more cells survive
[1] = compound: NC(=O)[C@@H](CCC(F)(F)F)N(Cc1ccc(-c2ncon2)cc1F)S(=O)(=O)c1ccc(Cl)cc1 [Avagacestat] + CS(=O)(=O)CCNCc1ccc(-c2ccc3ncnc(Nc4ccc(OCc5cccc(F)c5)c(Cl)c4)c3c2)o1 [Lapatinib] (partner 2 µM)
Method in brief: (§1)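 Dosing by pin tool came one day after lung cancer cell lines were seeded in 1536-well plates, using either one drug or a fixed anchor-drug dose plus five library-drug doses (not always all listed) in √10 steps. After 5 days, nuclei were counted on 4× images. Relative viability is treated-well nuclei count divided by vehicle-well nuclei count, and values are medians of duplicate plates.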

[2] = compound: NC(=O)[C@@H](CCC(F)(F)F)N(Cc1ccc(-c2ncon2)cc1F)S(=O)(=O)c1ccc(Cl)cc1 [Avagacestat] + C[C@]1(O)C[C@@H](c2nc(-c3ccc4ccc(-c5ccccc5)nc4c3)c3c(N)nccn32)C1 [Linsitinib] (partner 1 µM)
Method in brief: as §1

[3] = compound: NC(=O)[C@@H](CCC(F)(F)F)N(Cc1ccc(-c2ncon2)cc1F)S(=O)(=O)c1ccc(Cl)cc1 [Avagacestat] + COc1cccc2cc(-c3nc([C@H]4CC[C@H](C(=O)O)CC4)n4ncnc(N)c34)[nH]c12 [OSI-027] (partner 0.5 µM)
Method in brief: as §1

[4] = compound: NC(=O)[C@@H](CCC(F)(F)F)N(Cc1ccc(-c2ncon2)cc1F)S(=O)(=O)c1ccc(Cl)cc1 [Avagacestat] + CCNC(=O)c1noc(-c2cc(C(C)C)c(O)cc2O)c1-c1ccc(CN2CCOCC2)cc1 [Luminespib] (partner 0.01 µM)
Method in brief: as §1

Cell Line | relative viability ([1]; first compound 0.08 µM) | relative viability ([1]; first compound 0.253 µM) | relative viability ([1]; first compound 0.8 µM) | relative viability ([1]; first compound 2.53 µM) | relative viability ([1]; first compound 8 µM) | relative viability ([2]; first compound 0.08 µM) | relative viability ([2]; first compound 0.253 µM) | relative viability ([2]; first compound 0.8 µM) | relative viability ([2]; first compound 2.53 µM) | relative viability ([2]; first compound 8 µM) | relative viability ([3]; first compound 0.08 µM) | relative viability ([3]; first compound 0.253 µM) | relative viability ([3]; first compound 0.8 µM) | relative viability ([3]; first compound 2.53 µM) | relative viability ([3]; first compound 8 µM) | relative viability ([4]; first compound 0.08 µM) | relative viability ([4]; first compound 0.253 µM) | relative viability ([4]; first compound 0.8 µM) | relative viability ([4]; first compound 2.53 µM) | relative viability ([4]; first compound 8 µM)
NCI-H2023 | 0.979 | 0.89 | 0.822 | 0.617 | 0.7 | 0.789 | 0.784 | 0.628 | 0.606 | 0.47 | 0.471 | 0.466 | 0.505 | 0.344 | 0.302 | 1.06 | 0.862 | 0.952 | 0.514 | 0.762
NCI-H2228 | 1.33 | 0.875 | 1.52 | 1.13 | 0.718 | 1.04 | 0.765 | 0.786 | 0.62 | 0.534 | 0.849 | 0.455 | 0.57 | 0.503 | 0.504 | 0.221 | 0.117 | 0.179 | 0.132 | 0.108
RERF-LC-KJ | 1.12 | 0.887 | 0.871 | 0.889 | 0.751 | 0.896 | 0.981 | 0.92 | 0.848 | 0.761 | 0.57 | 0.65 | 0.695 | 0.54 | 0.547 | 1.72 | 1.39 | 1.36 | 1.35 | 1.13
NCI-H358 | 0.418 | 0.438 | 0.571 | 0.469 | 0.427 | 0.774 | 0.822 | 0.839 | 0.687 | 0.724 | 0.895 | 0.79 | 0.768 | 0.682 | 0.738 | 0.449 | 0.467 | 0.368 | 0.412 | 0.244
SK-MES-1 | 0.476 | 0.496 | 0.531 | 0.444 | 0.423 | 1.07 | 1.15 | 1.11 | 1.06 | 0.958 | 0.601 | 0.675 | 0.728 | 0.473 | 0.448 | 0.863 | 0.865 | 0.724 | 0.616 | 0.788
NCI-H1437 | 1.07 | 0.972 | 0.878 | 0.69 | 0.602 | 1.65 | 1.14 | 1.19 | 0.955 | 0.721 | 0.924 | 0.949 | 0.817 | 0.856 | 0.777 | 1.4 | 1.28 | 1.12 | 1.17 | 1.05
HOP-62 | 1.02 | 0.943 | 0.983 | 0.996 | 1.01 | 1.06 | 0.852 | 0.992 | 0.919 | 0.94 | 1.16 | 0.895 | 0.737 | 0.609 | 0.63 | 0.988 | 1.09 | 1.01 | 0.889 | 0.83
HARA | 0.628 | 0.692 | 0.526 | 0.624 | 0.63 | 1.29 | 1.28 | 1.01 | 0.79 | 0.907 | 0.603 | 0.57 | 0.484 | 0.383 | 0.49 | 0.783 | 0.201 | 0.614 | 0.536 | 0.87
HCC-44 | 1.23 | 0.893 | 1.17 | 1.03 | 0.98 | 0.703 | 0.709 | 0.681 | 0.504 | 0.598 | 0.474 | 0.457 | 0.673 | 0.528 | 0.499 | 1.21 | 1.36 | 1.14 | 0.885 | 1.25
NCI-H2405 | 1.02 | 1.12 | 1.21 | 0.958 | 1 | 0.873 | 0.852 | 1 | 0.627 | 0.737 | 0.628 | 0.638 | 0.603 | 0.571 | 0.516 | 0.638 | 0.856 | 0.58 | 0.665 | 0.466
NCI-H1993 | 0.956 | 0.659 | 0.738 | 0.731 | 0.674 | 0.754 | 0.746 | 0.765 | 0.773 | 0.749 | 0.583 | 0.548 | 0.536 | 0.524 | 0.521 | 0.93 | 0.91 | 1.04 | 0.752 | 0.842
NCI-H460 | 1.16 | 1.49 | 1.58 | 0.916 | 0.726 | 1.01 | 0.896 | 1.35 | 0.673 | 0.588 | 0.953 | 1.19 | 0.752 | 0.551 | 0.418 | 0.0352 | 0.0325 | 0.0362 | 0.0361 | 0.0325
ABC-1 | 1.23 | 1.32 | 1.14 | 0.497 | 1.15 | 0.979 | 1.06 | 0.866 | 0.786 | 0.737 | 0.442 | 0.537 | 0.637 | 0.401 | 0.418 | 0.387 | 0.583 | 0.801 | 0.359 | 0.555
